In EP0745595A1, “3-(3-Aryloxyphenyl)-1-(substituted methyl)-s-triazine-2,4,6-oxo or thiotrione herbicidal agents” (American Cyanamid Company, priority 1995, dated 1996):

What was measured:
Assay type in all cases: in vivo
[1] = system: ABUTILON THEOPHRASTI, MEDIC.; assay: Postemergence herbicidal evaluation, ABUTH (Velvetleaf); conditions: rated four to five weeks after treatment, averaged
Procedure: (§1) In the tests, seedling plants are grown in jiffy flats for about two weeks. The test compounds are dispersed in 50/50 acetone/water mixtures containing 0.5% TWEEN®20, a polyoxyethylene sorbitan monolaurate surfactant of Atlas Chemical Industries, […] to the plants through a spray nozzle operating at 40 psi for a predetermined time. After spraying, the plants are placed on greenhouse benches and are cared for in the usual manner, commensurate with conventional greenhouse practices. From four to five weeks after treatment, the seedling plants are examined and rated according to the rating system set forth below. Where more than one test is involved for a given compound, the data are averaged.
(§2) Plant species employed in these evaluations are reported by header abbreviation, common name and scientific name.
(§3) Results of herbicide evaluation are expressed on a rating scale (0-9). The scale is based upon a visual observation of plant stand, vigor, malformation, size, chlorosis and overall plant appearance as compared with a control.

[2] = system: AMBROSIA ARTEMISIIFOLIA, L.; assay: Postemergence herbicidal evaluation, AMBEL (Ragweed, Common); conditions: rated four to five weeks after treatment, averaged
Procedure: as §1, §2, §3

CASSIA OBTUSIFOLIA, L. = assay: Postemergence herbicidal evaluation, CASOB (Sicklepod); conditions: rated four to five weeks after treatment, averaged
Procedure: (§4) In the tests, seedling plants are grown in jiffy flats for about two weeks. The test compounds are dispersed in 50/50 acetone/water mixtures containing 0.5% TWEEN®20, a polyoxyethylene sorbitan monolaurate surfactant of Atlas Chemical Industries, in sufficient quantities to provide the equivalent of about 0.125 kg to 0.500 kg per hectare of active compound when applied to the plants through a spray nozzle operating at 40 psi for a predetermined time. After spraying, the plants are placed on greenhouse benches and are cared for in the usual manner, commensurate with conventional greenhouse practices. From four to five weeks after treatment, the seedling plants are examined and rated according to the rating system set forth below. Where more than one test is involved for a given compound, the data are averaged.
as §2, §3

CHENOPODIUM ALBUM, L. [3] = assay: Preemergence herbicidal evaluation, CHEAL (Lambsquarters, Common); conditions: rated four to five weeks after treatment
From the text: as §3
The preemergence herbicidal activity of the test compounds of the present invention is exemplified by the following tests in which the seeds of a variety of monocotyledonous and dicotyledonous plants are separately mixed with potting soil and planted on top of approximately one inch of soil in separate pint cups. […] The treated cups are then placed on greenhouse benches, watered and cared for in accordance with conventional greenhouse procedures. From four to five weeks after treatment, the tests are terminated and each cup is examined and rated according to the rating system provided in Example 40.
The compounds evaluated are reported by compound number given in Example 40.

[…], PRESL. = Preemergence weed control under flooded paddy conditions, MOOVA (Monochoria); conditions: preemergence, 3-4 weeks after treatment
Procedure: as §3
(§5) Preemergence herbicidal activity under flooded paddy conditions is determined as follows: plant seeds or propagating organs are planted in the top 0.5 cm of silt loam soil in 32 oz. plastic containers with a diameter of 10.5 cm and no drainage holes. Water is added to these containers and maintained at 1.5 to 3 cm above the soil surface for the duration of the experiment. The test compounds are applied as aqueous/acetone mixtures 50/50 v/v pipetted directly into the flood water to give the equivalent of about 0.5, 0.25, 0.125 and 0.063 kg/ha of active ingredient. The treated containers are placed on greenhouse benches and cared for according to normal greenhouse procedures.- Three to four weeks after treatment the test is terminated and each container is examined and herbicidal effect rated according to the rating system provided in Example 40. The compounds evaluated are reported by compound number given in Example 40.
(§6) Plant species employed in this example are reported by header abbreviation, common name and scientific name.

[4] = system: ORYZA SATIVA, L. TEBONNET; assay: Rice tolerance to post-transplant applications under flooded paddy conditions, ORYSAT (Rice, Tebonnet); conditions: post-transplant rice, 3-4 weeks after treatment
Procedure: as §3
The tolerance of transplanted rice to post-transplanted herbicide applications is determined as follows: two ten-day-old rice seedlings (CV. Tebonnet) are transplanted into a silt loam soil in 32 oz. plastic containers with a diameter of 10.5 cm and no drainage holes. After transplanting the containers are flooded and the water level is maintained at 1.5 to 3 cm above the soil surface. […] The treated containers are placed on greenhouse benches, watered such that the water level is maintained as stated above, and cared for according to normal greenhouse procedures. Three to four weeks after treatment the test is terminated and each container is examined and herbicidal effect rated according to the rating system provided in Example 40. The compounds evaluated are reported by compound number given in Example 40.
as §6

CHENOPODIUM ALBUM, L. [5] = assay: Postemergence herbicidal evaluation, CHEAL (Lambsquarters, Common); conditions: rated four to five weeks after treatment, averaged
Procedure: as §1, §2, §3

IPOMOEA SPP. = assay: Postemergence herbicidal evaluation, IPOSS (Morningglory spp.); conditions: rated four to five weeks after treatment, averaged
Procedure: as §1, §2, §3

GALIUM APARINE = assay: Postemergence herbicidal evaluation, GALAP (Galium); conditions: rated four to five weeks after treatment, averaged
Procedure: as §4, §2, §3

[6] = system: ECHINOCHLOA ORYZOIDES (ARD.)FRITSCH; assay: Preemergence weed control under flooded paddy conditions, ECHORC (Watergrass (Calif.)); conditions: preemergence, 3-4 weeks after treatment
Procedure: as §3
as §5, with “The test compounds are applied as aqueous/acetone mixtures 50/50 v/v pipetted directly into the flood water to give the equivalent of about 0.5, 0.25, 0.125 and 0.063 kg/ha of active ingredient.” left out
as §6

[7] = system: CYPERUS SEROTINUS, ROTTB.; assay: Preemergence weed control under flooded paddy conditions, CYPSE (Flatsedge); conditions: preemergence, 3-4 weeks after treatment
Procedure: as §3
as §5, with “The test compounds are applied as aqueous/acetone mixtures 50/50 v/v pipetted directly into the flood water to give the equivalent of about 0.5, 0.25, 0.125 and 0.063 kg/ha of active ingredient.” left out
as §6

SAGITTARIA PYGMAEA, L. = assay: Preemergence weed control under flooded paddy conditions, SAGPY (Arrowhead (Pygmaea)); conditions: preemergence, 3-4 weeks after treatment
Procedure: as §3
as §5, with “The test compounds are applied as aqueous/acetone mixtures 50/50 v/v pipetted directly into the flood water to give the equivalent of about 0.5, 0.25, 0.125 and 0.063 kg/ha of active ingredient.” left out
as §6

Row | Structure (SMILES) | ABUTH, herbicide rating (0-9) ([1]; Rate 0.125 kg/ha) | ABUTH, herbicide rating (0-9) ([1]; Rate 0.250 kg/ha) | ABUTH, herbicide rating (0-9) ([1]; Rate 0.500 kg/ha) | CASOB, herbicide rating (0-9) (CASSIA OBTUSIFOLIA, L.; Rate 0.125 kg/ha) | CASOB, herbicide rating (0-9) (CASSIA OBTUSIFOLIA, L.; Rate 0.250 kg/ha) | CASOB, herbicide rating (0-9) (CASSIA OBTUSIFOLIA, L.; Rate 0.500 kg/ha) | Herbicidal effect rating, MOOVA ([…], PRESL.; 0.063 kg/ha) | Herbicidal effect rating, MOOVA ([…], PRESL.; 0.125 kg/ha) | Herbicidal effect rating, MOOVA ([…], PRESL.; 0.250 kg/ha) | Herbicidal effect rating, MOOVA ([…], PRESL.; 0.500 kg/ha) | Herbicidal effect rating, ORYSAT ([4]; 0.063 kg/ha) | Herbicidal effect rating, ORYSAT ([4]; 0.125 kg/ha) | Herbicidal effect rating, ORYSAT ([4]; 0.250 kg/ha) | Herbicidal effect rating, ORYSAT ([4]; 0.500 kg/ha) | GALAP, herbicide rating (0-9) (GALIUM APARINE; Rate 0.125 kg/ha) | GALAP, herbicide rating (0-9) (GALIUM APARINE; Rate 0.250 kg/ha) | GALAP, herbicide rating (0-9) (GALIUM APARINE; Rate 0.500 kg/ha) | also measured
1 | Cn1c(=O)n(CC(=O)O)c(=O)n(-c2cc(Oc3c(F)cc(C(F)(F)F)cc3Cl)ccc2[N+](=O)[O-])c1=O [Compound 15, 3-{5-[(2-Chloro-α,α,α,6-tetrafluoro-p-tolyl)oxy]-2-nitrophenyl}tetrahydro-5-methyl-2,4,6-trioxo-s-triazine-1(2H)-acetic acid] | 9.0 | 9.0 | 9.0 | 9.0 | 9.0 | 9.0 | 9.0 | 9.0 | 9.0 | 9.0 | 4.5 | 4.5 | 7.0 | 7.0 | – | – | – | AMBEL, herbicide rating (0-9) ([2]; Rate 0.125 kg/ha): 9.0; AMBEL, herbicide rating (0-9) ([2]; Rate 0.250 kg/ha): 9.0; AMBEL, herbicide rating (0-9) ([2]; Rate 0.500 kg/ha): 9.0; CHEAL herbicidal rating (CHENOPODIUM ALBUM, L. [3]; Rate 0.125 kg/ha): 9.0; CHEAL herbicidal rating (CHENOPODIUM ALBUM, L. [3]; Rate 0.250 kg/ha): 9.0; CHEAL herbicidal rating (CHENOPODIUM ALBUM, L. [3]; Rate 0.500 kg/ha): 9.0
2 | COC(=O)Cn1c(=O)n(C)c(=O)n(-c2cc(Oc3ccc(Cl)cc3Cl)ccc2[N+](=O)[O-])c1=O [Compound 18, Methyl 3-[5-(2,4-dichlorophenoxy)-2-nitrophenyl]tetrahydro-5-methyl-2,4,6-trioxo-s-trizine-1(2H)-acetate] | 9.0 | 9.0 | 9.0 | 9.0 | 9.0 | 9.0 | 9.0 | 9.0 | 9.0 | 9.0 | 2.0 | 3.0 | 3.0 | 4.0 | 9.0 | 9.0 | 9.0 | CHEAL, herbicide rating (0-9) (CHENOPODIUM ALBUM, L. [5]; Rate 0.125 kg/ha): 9.0; CHEAL, herbicide rating (0-9) (CHENOPODIUM ALBUM, L. [5]; Rate 0.250 kg/ha): 9.0; CHEAL, herbicide rating (0-9) (CHENOPODIUM ALBUM, L. [5]; Rate 0.500 kg/ha): 9.0; IPOSS, herbicide rating (0-9) (IPOMOEA SPP.; Rate 0.125 kg/ha): 9.0; IPOSS, herbicide rating (0-9) (IPOMOEA SPP.; Rate 0.250 kg/ha): 9.0; IPOSS, herbicide rating (0-9) (IPOMOEA SPP.; Rate 0.500 kg/ha): 9.0; Herbicidal effect rating, ECHORC ([6]; 0.063 kg/ha): 9.0; Herbicidal effect rating, ECHORC ([6]; 0.125 kg/ha): 9.0; Herbicidal effect rating, ECHORC ([6]; 0.250 kg/ha): 9.0; Herbicidal effect rating, ECHORC ([6]; 0.500 kg/ha): 9.0
3 | COC(=O)Cn1c(=O)n(CC(=O)OC)c(=O)n(-c2cc(Oc3ccc(Cl)cc3Cl)ccc2[N+](=O)[O-])c1=O [Compound 19, Dimethyl 5-[5-(2,4-dichlorophenoxy)-2-nitro-phenyl]dihydro-2,4,6-trioxo-s-trizine-1,3-(2H,4H)-diacetate] | 9.0 | 9.0 | 9.0 | 9.0 | 9.0 | 9.0 | 9.0 | 9.0 | 9.0 | 9.0 | 1.0 | 1.0 | 1.0 | 1.0 | 9.0 | 9.0 | 9.0 | Herbicidal effect rating, CYPSE ([7]; 0.063 kg/ha): 0.0; Herbicidal effect rating, CYPSE ([7]; 0.125 kg/ha): 0.0; Herbicidal effect rating, CYPSE ([7]; 0.250 kg/ha): 0.0; Herbicidal effect rating, CYPSE ([7]; 0.500 kg/ha): 0.0; Herbicidal effect rating, SAGPY (SAGITTARIA PYGMAEA, L.; 0.063 kg/ha): 0.0; Herbicidal effect rating, SAGPY (SAGITTARIA PYGMAEA, L.; 0.125 kg/ha): 0.0; Herbicidal effect rating, SAGPY (SAGITTARIA PYGMAEA, L.; 0.250 kg/ha): 0.0; Herbicidal effect rating, SAGPY (SAGITTARIA PYGMAEA, L.; 0.500 kg/ha): 0.0
